Where a name gives a salt, the structure may show the parent alone. Marks after values point to notes of the source that are not given here.
Key:
[1] = system: Kunming mice; assay: Acetic acid-induced abdominal writhing test in mice; type: in vivo; conditions: 1 h before 0.7% acetic acid i.p.
Experimental: Acetic Acid-Induced Abdominal Writhing Test in Mice
Kunming mice, SPF KM mice purchased from […] SLAC LABORATORY ANIMAL CO. LTD and kept in normal environment.
(§1) 2. Modes of Administration
The compounds were dissolved in water for injection at a concentration of 4 mg/ml, 2 mg/ml and 1 mg/ml and were given intragastrically to animals.
(§2) Three different doses (10, 20, and 40 mg/kg) were administered to the test groups.
Aspirin was used as a positive control and acetic acid writhing test was used.
30 mice (half male and half female) weighing 18-23 g were divided into five groups, including negative control group, positive control group, low dose group, medium dose group and high dose group:
Mice in test group received test drug (10 mg/kg, 20 mg/kg, 40 mg/kg) via intragastric administration. Negative control group received physiological saline (20 ml/kg) via oral administration. Positive control group received aspirin (200 mg/kg) via oral administration. One hour later, each group received 0.7% acetic acid 10 ml/kg intraperitoneally. Five minutes later, the number of writhes was counted within the subsequent 15 min period; inhibition percentage of writhing response in each test group was calculated by the following equation: […]

[2] = system: Kunming mice; assay: Hot-plate test in mice; type: in vivo; conditions: 1 h post dose, hot plate 55° C.
Experimental: Kunming mice, SPF KM mice were purchased from […] SLAC LABORATORY ANIMAL CO. LTD and kept in normal environment.
as §1
The compounds were dissolved in water for injection at a concentration of 4 mg/ml, 2 mg/ml and 1 mg/ml and were given subcutaneously to animals.
as §2
Morphine was used as a positive control and hot plate test was used.
30-40 mice (half male and half female) weighing 18-23 g were used. First, each mouse was placed on a hot plat at 55° C. to determine basic pain threshold for 2-3 times. Those animals with basic pain threshold of 5-30 s were qualified, unqualified mice were not used. 30 qualified mice were divided into five groups, including negative control group, positive control group, low-dose group, medium-dose group and high-dose group:
Mice in test groups received test sample solution (10 mg/kg, 20 mg/kg, 40 mg/kg) via subcutaneous injection in the neck. Positive control group received subcutaneous injection of morphine (2 mg/kg). One hour later, pain threshold values were determined for mice in each group as post-drug pain threshold. Percentage increase in pain threshold was calculated according to the following equation: […]

[3] = target: opioid receptor subtype μ (Homo sapiens, UniProt P35372); assay: biochemical; type: binding; conditions: test concentration 10^−5 mol/L; [3H]Diprenorphine 0.4 nM; mean±SE; read-out: Inhibition percentage of competitive binding, μ
Experimental: (§3) Competitive Binding Between the Compounds and Opioid Receptor Subtypes μ, δ, κ
(§4) The respective test compounds were added to the sample tube (final concentration of 10^−5M), incubated at 37° C. for 30 min and placed in ice bath to terminate the reaction. The reaction mixture was filtered through GF/C(Whatman) glass fiber filter by vacuum filtration on a Millipore sample collector. The filter was washed three times with 50 mM Tris-HCl (pH7.4), each with 4 ml; dried and transferred into a 0.5 ml Eppendorf tube, in which 0.5 ml lipophilic scintillation fluid was added. Radioactivity was detected by a LS6500 scintillation counter. Each concentration had three duplicate test tubes and each separate test was repeated 3 to 4 times.
(§5) Specific binding CMP value for each sample tube=overall binding CPM value for each sample tube-CPM value of non-specific binding tube. [Inhibition percentage of competitive binding between the test compound and different opioid receptor subtypes (%)=(100%−specific binding (CPM value) of sample tube/specific binding (CPM value) of solvent group×100%)]
(§6) Average was taken for each test drug from three duplicate tubes; each test was repeated two or more times.

[4] = target: opioid receptor subtype κ (Homo sapiens, UniProt P41145); assay: biochemical; type: binding; conditions: test concentration 10^−5 mol/L; [3H]Diprenorphine 0.4 nM; mean±SE; read-out: Inhibition percentage of competitive binding, κ
Experimental: as §3, §4, §5, §6

[5] = target: opioid receptor subtype δ (Homo sapiens, UniProt P41143); assay: Competitive radioligand binding ([3H]Diprenorphine), opioid receptor subtype δ; conditions: read-out: Inhibition percentage of competitive binding, δ
Experimental: as §3, §4, §5
Average was taken for each test drug from three duplicate tubes; each test was repeated two or more times. Data were presented as mean±SE and statistical comparison was made by ANOVA.

[6] = in vivo; conditions: mouse, po, mice
Description: Studies of Acute Toxicity of the Compound I-1 and I-20
For statistics of 1-20, Bliss method was used (“Experimental Design and Statistical Basis for Drug Evaluation”, Changxiao Liu, Ruiyuan Su, first edition, Military Medical Science Press, 1993, 80-90).

Sequence of opioid receptor subtype μ (P35372 whole entry): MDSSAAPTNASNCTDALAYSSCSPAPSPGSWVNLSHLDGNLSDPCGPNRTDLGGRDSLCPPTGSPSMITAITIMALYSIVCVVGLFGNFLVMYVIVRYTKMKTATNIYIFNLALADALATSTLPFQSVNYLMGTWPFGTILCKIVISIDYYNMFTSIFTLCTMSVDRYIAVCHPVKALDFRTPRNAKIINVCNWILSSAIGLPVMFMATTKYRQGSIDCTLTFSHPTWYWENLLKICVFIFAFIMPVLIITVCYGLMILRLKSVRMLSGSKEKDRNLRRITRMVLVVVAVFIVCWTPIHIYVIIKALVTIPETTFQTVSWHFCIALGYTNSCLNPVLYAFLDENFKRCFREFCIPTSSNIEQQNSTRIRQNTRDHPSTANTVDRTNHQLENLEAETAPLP
Sequence of opioid receptor subtype κ (P41145 whole entry): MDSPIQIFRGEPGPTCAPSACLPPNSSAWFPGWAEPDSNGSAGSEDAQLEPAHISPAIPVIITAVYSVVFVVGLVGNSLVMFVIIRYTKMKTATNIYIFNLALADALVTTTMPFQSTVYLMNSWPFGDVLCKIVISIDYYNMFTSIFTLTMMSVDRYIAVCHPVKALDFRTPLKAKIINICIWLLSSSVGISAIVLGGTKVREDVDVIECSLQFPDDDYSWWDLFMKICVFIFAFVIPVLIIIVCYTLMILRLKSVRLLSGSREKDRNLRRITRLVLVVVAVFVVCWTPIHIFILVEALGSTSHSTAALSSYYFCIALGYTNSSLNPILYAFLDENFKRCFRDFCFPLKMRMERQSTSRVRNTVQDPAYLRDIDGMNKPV
Sequence of opioid receptor subtype δ (P41143 whole entry): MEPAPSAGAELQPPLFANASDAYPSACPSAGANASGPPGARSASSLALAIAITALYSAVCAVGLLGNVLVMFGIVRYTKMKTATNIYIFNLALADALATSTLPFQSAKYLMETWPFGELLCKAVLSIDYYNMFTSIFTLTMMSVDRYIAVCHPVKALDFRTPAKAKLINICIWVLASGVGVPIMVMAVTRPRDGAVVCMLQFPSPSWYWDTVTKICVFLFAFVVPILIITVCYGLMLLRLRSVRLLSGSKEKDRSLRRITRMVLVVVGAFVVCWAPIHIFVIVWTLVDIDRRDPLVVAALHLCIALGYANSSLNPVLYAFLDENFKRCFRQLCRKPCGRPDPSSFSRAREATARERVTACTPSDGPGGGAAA

| SMILES | Inhibition percentage of writhing response ([1]; 10 mg/kg Ig) | Inhibition percentage of writhing response ([1]; 20 mg/kg Ig) | Inhibition percentage of writhing response ([1]; 40 mg/kg Ig) | other results |
| --- | --- | --- | --- | --- |
| COc1ccccc1N1CCN(C(C)C(O)c2ccc3[nH]c(=O)[nH]c3c2)CC1 (racemic) (as salt: hydrochloride) |  |  |  | melting point: 221 to 223 °C |
| CC(C(O)c1ccc2[nH]c(=O)sc2c1)N1CCN(c2cccc(C(F)(F)F)c2)CC1 (racemic) (as salt: hydrochloride) |  |  |  | melting point: 217 to 219 °C |
| COc1ccccc1N1CCN([C@@H](C)[C@H](O)c2ccc3c(c2)CC(=O)N3)CC1 (racemic) (as salt: hydrochloride) [IV-1, (1RS,2SR)-5-(1-hydroxy-2-(4-(2-methoxyphenyl)piperazin-1-yl)propyl)indolin-2-one] |  |  |  | melting point: 213 to 215 °C |
| C[C@@H]([C@H](O)c1ccccc1)N1CCN(c2cccc(C(F)(F)F)c2)CC1 (racemic) [Compound I-1, (1RS,2SR)-1-phenyl-2-(4-(3-trifluoromethylphenyl)piperazinyl)-propan-1-ol] | 64.38 * % | 68.13 * % | 83.13 ** % | Percentage increase in pain threshold ([2]; 10 mg/kg S.c.): 4.53%; Percentage increase in pain threshold ([2]; 20 mg/kg S.c.): 11.7%; Percentage increase in pain threshold ([2]; 40 mg/kg S.c.): 89.62 ** %; inhibition at 10 µM [3]: 22.7 ± 2.2%; inhibition at 10 µM [4]: 2.7 ± 0.9%; inhibition at 10 µM [5]: 0%; LD50 [6]: > 2000 mg/kg |
| C[C@H]([C@H](O)c1ccccc1)N1CCN(c2cccc(C(F)(F)F)c2)CC1 (racemic) [Compound I-2, (1RS,2RS)-1-phenyl-2-(4-(3-trifluoromethylphenyl)piperazinyl)-propan-1-ol] | 40.53% | 63.16 * % | 68.95 * % |  |
| C[C@@H]([C@H](O)c1ccccc1)N1CCN(c2cccc(Cl)c2)CC1 (racemic) [Compound I-3, (1RS,2SR)-1-phenyl-2-(4-(3-chlorophenyl)piperazinyl)-propan-1-ol] | 49.61% | 76.38 * % | 83.46 ** % |  |
| C[C@H]([C@H](O)c1ccccc1)N1CCN(c2cccc(Cl)c2)CC1 (racemic) [Compound I-4, (1RS,2RS)-1-phenyl-2-(4-(3-chlorophenyl)piperazinyl)-propan-1-ol] | 35.00% | 49.38 * % | 78.13 ** % |  |
| COc1ccc(N2CCN([C@@H](C)[C@H](O)c3ccccc3)CC2)cc1 (racemic) [Compound I-7, (1RS,2SR)-1-phenyl-2-(4-(4-methoxyphenyl)piperazinyl)-propan-1-ol] | 61.02% | 75.42 ** % | 70.34 * % |  |
| COc1ccc([C@@H](O)[C@H](C)N2CCN(c3ccccc3OC)CC2)cc1 (racemic) [Compound I-13, (1RS,2SR)-1-(4-methoxyphenyl)-2-(4-(2-methoxyphenyl)piperazinyl)-propan-1-ol] | 73.33 * % | 84.55 * % | 87.88 ** % | Percentage increase in pain threshold ([2]; 10 mg/kg S.c.): 16.19%; Percentage increase in pain threshold ([2]; 20 mg/kg S.c.): 74.59 * %; Percentage increase in pain threshold ([2]; 40 mg/kg S.c.): 142.41 ** % |
| COc1ccc([C@@H](O)[C@@H](C)N2CCN(c3ccccc3OC)CC2)cc1 (racemic) [Compound I-14, (1RS,2RS)-1-(4-methoxyphenyl)-2-(4-(2-methoxyphenyl)piperazinyl)-propan-1-ol] | 74.55 * % | 79.39 * % | 76.36% |  |
| C[C@@H]([C@H](O)c1ccc(NS(C)(=O)=O)cc1)N1CCN(c2cccc(C(F)(F)F)c2)CC1 (racemic) [Compound I-17, (1RS,2SR)-1-(4-methanesulfonamidophenyl)-2-(4-(3-trifluoromethylphenyl)piperazinyl)-propan-1-ol] |  |  |  | Percentage increase in pain threshold ([2]; 10 mg/kg S.c.): 59.02%; Percentage increase in pain threshold ([2]; 20 mg/kg S.c.): 147.36 ** %; Percentage increase in pain threshold ([2]; 40 mg/kg S.c.): 172.27 ** % |
| COc1ccccc1N1CCN([C@@H](C)[C@H](O)c2ccc3c(c2)CC(=O)N3)CC1 (racemic) [IV-1, (1RS,2SR)-5-(1-hydroxy-2-(4-(2-methoxyphenyl)piperazin-1-yl)propyl)indolin-2-one] | 92.92 ** % | 74.34 * % | 89.38 ** % | inhibition at 10 µM [3]: 7.6 ± 0.8%; inhibition at 10 µM [4]: 5.3 ± 0.1%; inhibition at 10 µM [5]: 0% |
| COc1ccccc1N1CCN([C@H](C)[C@H](O)c2ccc3c(c2)CC(=O)N3)CC1 (racemic) [IV-2, (1RS,2RS)-5-(1-hydroxy-2-(4-(2-methoxyphenyl)piperazin-1-yl)propyl)indolin-2-one] | 98.23 ** % | 97.35 ** % | 93.81 ** % |  |
| CC(=O)Oc1ccccc1C(=O)O [Aspirin, reference compound] |  |  |  | Inhibition percentage of writhing response ([1]; positive control aspirin 200 mg/kg oral): 95.05 ** % |
| COc1ccccc1N1CCN([C@@H](C)[C@H](O)c2ccccc2)CC1 [II-1, (1R,2S)-1-phenyl-2-(4-(2-methoxyphenyl)piperazinyl)-propan-1-ol] | 30.09% | 47.79 * % | 58.41 * % |  |
| COc1ccccc1N1CCN([C@@H](C)[C@@H](O)c2ccccc2)CC1 [II-2, (1S,2S)-1-phenyl-2-(4-(2-methoxyphenyl)piperazinyl)-propan-1-ol] | 69.91 * % | 71.48 * % | 74.34 ** % | inhibition at 10 µM [3]: 5.3 ± 0.9%; inhibition at 10 µM [4]: 36.5 ± 1.6%; inhibition at 10 µM [5]: 12.8 ± 0.8% |
| COc1ccccc1N1CCN([C@H](C)[C@@H](O)c2ccccc2)CC1 [III-1, (1S,2R)-1-phenyl-2-(4-(2-methoxyphenyl)piperazinyl)-propan-1-ol] | 69.28 ** % | 55.56 * % | 67.32 ** % |  |
| COc1ccccc1N1CCN([C@H](C)[C@H](O)c2ccccc2)CC1 [III-2, (1R,2R)-1-phenyl-2-(4-(2-methoxyphenyl)piperazinyl)-propan-1-ol] | 64.05 ** % | 76.47 ** % | 86.27 ** % | Percentage increase in pain threshold ([2]; 10 mg/kg S.c.): 72.91%; Percentage increase in pain threshold ([2]; 20 mg/kg S.c.): 133.48 * %; Percentage increase in pain threshold ([2]; 40 mg/kg S.c.): 151.86 * %; inhibition at 10 µM [3]: 25.1 ± 1.3%; inhibition at 10 µM [4]: 40 ± 0.6%; inhibition at 10 µM [5]: 16.8 ± 2.3% |
| CN1CC[C@]23c4c5ccc(O)c4O[C@H]2[C@@H](O)C=C[C@H]3[C@H]1C5 [morphine, reference compound] |  |  |  | Percentage increase in pain threshold ([2]; positive control morphine 2 mg/kg S.c.): 202.5 ** % |
